Measured values taken from US20160120858A1 (ACADEMIA SINICA, priority 2014, published 2016).
Entries after “also recorded” stand apart in the source; their conditions may differ.

Key:
NMDAR = assay: Simultaneous NMDA- and AMPA-eEPSCs at −40 mV, patch-clamp, hippocampal slices; format: cell-based, mouse; conditions: for NMDA-eEPSCs (NMDAR function) at −40 mV: CQ 4 uM, 20 minutes, WT and Shank2^−/− SC-CA1 synapses
Procedure: For electrophysiological experiments, sagittal hippocampal slices (400 uM thick for extracellular, 300 uM thick for intracellular recordings) of Shank2^−/− mice (or ZnT3^−/− mice) and their wild-type littermates were prepared using a vibratome (Leica VT1200) in ice-cold dissection buffer containing (in mM) 212 sucrose, 25 NaHCO3, 5 KCl, 1.25 NaH2PO4, 0.5 CaCl2, 3.5 MgSO4, 10 D-glucose, 1.25 L-ascorbic acid, and 2 Na-pyruvate bubbled with 95% 02/5% CO2. CA3 was removed to prevent epileptiform activity. Slices were restored for 1 hour in 32° C. in a normal artificial CSF (ACSF) (In units of mM: 124 NaCl, 2.5 kCl, 1 NaH2PO4, 25 NaHCO3, 10 glucose, 2 CaC12, 2 Mg504 oxidized by 95% 02/5% CO2) For the recording, a single slice was moved to and maintained in submerged-type chamber at 28° C., continuously perfused with ACSF (2 mL/minute) saturated with 95% 02/5% CO2. Stimulation and recording pipettes were pulled from borosilicate glass capillaries (Harvard Apparatus) using a micropipette electrode puller (Narishege).
Whole-cell patch-clamp recordings of hippocampal CA1 pyramidal neurons were also made using a MultiClamp 700B amplifier (Molecular Devices) and Digidata 1440A (Molecular Devices). During whole-cell patch-clamp recordings, series resistance was monitored each sweep by measuring the peak amplitude of the capacitance currents in response to short hyperpolarizing step pulse (5 mV, 40 ms); only cells with a change in <25% were included in the analysis. For NMDA (N-Methyl-D-aspartate)/AMPA (alpha-amino-3-hydroxy-5-methylisoxazole-4-propionic acid) ratio experiments, mouse hippocampal slices at the age of postnatal day 17 to 25 were used. The recording pipettes (2.5 to 3.5 MΩ) were filled with an internal solution containing the following (in mM): 100 CsMeSO4, 10 TEA-Cl, 8 NaCl, 10 HEPES, 5 QX-314-C1, 2 Mg-ATP, 0.3 Na-GTP, 10 EGTA, with pH 7.25, 295 mOsm). CA1 pyramidal neurons were voltage-clamped at −70 mV, and EPSPs were evoked at every 15 sec. AMPAR-mediatedEPSCs were recorded at −70 mV, and 30 consecutive responses were recorded after stable baseline. After recording AMPAR-mediated EPSPs, holding potential was changed to +40 mV to record NMDA receptor-mediated EPSPs. NMDA component was measured at 60 ms after the stimulation. The NMDA/AMPA ratio was determined by dividing the mean value of 30 NMDA components of EPSPs by the mean value of 30 AMPAR-mediated EPSC peak amplitudes. […] For measuring AMPAR-mediated and NMDAR-mediated EPSCs together upon CQ treatment, pyramidal neurons were voltage-clamped at −40 mV, and EPSCs were evoked at every 15 sec. AMPAR-mediated EPSC was determined as a peak amplitude of EPSC, and NMDAR-mediated EPSC as a component at 60 ms after stimulation. NMDA/AMPA ratio at −40 mV was calculated by using both values, and monitored during the experimental process. […] Picrotoxin (100 uM) was always added to ACSF to block GABAA receptor-mediated currents.

Shank2^−/− mice = assay: Three-chamber social interaction assay, Shank2 mice; format: in vivo, mouse; conditions: 30 mg/kg i.p., 2 hours prior to test
Text: All mice were backcrossed into a C57BL/6 background, and housed and bred in a mouse vivarium at the Korea Advanced Institute of Science and Technology (KAIST, Shank2^−/−mice) and at Academia Sinica (Tbr1^+/− mice). Pups were kept with the dam until weaning at postnatal day 21. After weaning, animals were group housed in mixed-genotype groups of 3 to 5 mice per cages, and randomly subjected to electrophysiological and behavioral experiments. Animals at 3 to 5 weeks of age were used for electrophysiological experiments; male animals at 2 to 4 months of age were used for behavioral assays. For TFL-Zn staining, male animals at 8 weeks (for Shank2^−/−mice) were used. Wild-type littermates were used as controls.
The injection was performed 2 hours before (Shank2^−/− mice and wild-type littermates), or 3 hours before (Tbr1^+/− mice and wild-type littermates) behavioral assays at the discretion of the facility.
Testing was conducted in dedicated behavioral test rooms during the light phase (three-chamber test) and the dark phase (repetitive behaviors and open field test).
In short, the assay consisted of three phases of 10 minutes duration: habituation, social interaction (Stranger1 vs. Object), and social novelty recognition (Stranger 1 vs. Stranger 2). Exploration was defined as each instance in which wild-type or mutant mouse tries to sniff Object/Stranger, or orients its nose towards and come close to object/stranger. Individual movement tracks were analyzed by Ethovision 10.0 (Noldus) and modified by custom-designed software MatLab (Mathworks) to generate heat maps. Time spent in exploration was analyzed by the researcher who was blinded to the subject genotype (in Shank2 mice), or by using the Smart Video Tracking System (Panlab, in Tbr1 mice). In addition to exploration time, the preference index, which represents a numerical difference between time spent exploring the targets (Stranger1 vs. Object, or Stranger 2 vs. Stranger 1) divided by total time spent exploring both targets, as described previously.
Two hours after CQ treatment, the mice were subjected to a three-chamber social interaction test, which compares the preference of a mouse for a stranger mouse versus a novel inanimate object.

With Oc1c(I)cc(Cl)c2cccnc12 [clioquinol, 5-Chloro-7-Iodo-8-Hydroxyquinoline] the “NMDA-eEPSCs (NMDAR function) at −40 mV” value (NMDAR) was “increased NMDA-eEPSCs”, the “NMDA-eEPSCs (NMDAR function) at −40 mV” value (NMDAR; listed as CQ) was “enhances NMDAR function” and the “AMPA-eEPSCs at −40 mV” value (NMDAR; clioquinol treatment, WT and Shank2^−/−) was “not affected”. For the same molecule, the “NMDAR function (NMDA-eEPSCs at −40 mV) in the presence of sSrc (40-58)” value (NMDAR; peptide 0.03 mg/mL in internal solution) was “effectively enhances NMDAR function”, the “NMDAR function (NMDA-eEPSCs at −40 mV) in the presence of Src (40-58)” value (NMDAR; peptide 0.03 mg/mL in internal solution, Shank2^−/− SC-CA1 synapses) was “fails to enhance NMDAR function” and the Social novelty recognition (Shank2^−/− mice; Shank2^−/− (KO) mice) was “had no effect on social novelty recognition; also recorded: did not affect the social novelty recognition”. The Social novelty recognition (Shank2^−/− mice; Shank2^−/− (KO) mice, listed as Clioquinol) was “has no effect on social novelty recognition”, the Social novelty recognition (Shank2^−/− mice; wild-type (WT) mice) was “had no effect on social novelty recognition; also recorded: did not affect the social novelty recognition” and the Social novelty recognition (Shank2^−/− mice; wild-type (WT) mice, listed as Clioquinol) was “has no effect”.
